Measurements: patent US11104656B2, “Method for purifying and removing color of FDCA” (Nederlandse Organisatie voor …, priority 2017, dated 2021)

What was measured:
Format in all cases: physicochemical
[1] = Solubility of FDCA in water at different temperatures; conditions: water as solvent, temperatures beyond 130° C.
Text: The inventors realized that it is desirable for FDCA crystallization to use superheating for dissolving FDCA. FDCA may show a significant increase in solubility above superheating conditions. […] The byproduct is colored and its formation is therefore undesirable both in view of purity and color.

[2] = Influence of heating time on decomposition (FDCA in water at 130° C.); conditions: for appearance of solution on heating (decomposition): deionised water
Procedure: In a reaction vessel, 60 mg of FDCA was dissolved over time in 3 ml of deionised water at a temperature of 130° C. On heating, around 5 minutes was needed to allow the solid to dissolve. Following this, samples were taken at 12, 15, 18 and 21 minutes. The samples were photographed at these intervals (FIG. 4).

[3] = Influence of heating time on color of the precipitate after cooling; conditions: 200 mg FDCA in 2 mL H2O, 140-180° C., 5-15 min, prolonged heating
Procedure: In another experiment, the influence of heating time on the color of the precipitate after cooling was investigated. A total of nine samples were prepared by mixing 200 mg of FDCA in 2 mL H2O. [table]

solubility of FDCA [1]: increases dramatically | time needed to allow the solid to dissolve ([2]; 60 mg FDCA in 3 ml deionised water): around 5 minutes | appearance of solution on heating (decomposition) ([2]; after 12 minutes): a light solution is observed | appearance of solution on heating (decomposition) ([2]; after 18 minutes): clearly darker brown in color | by-product formation after heating and cooling [3]: formation of black solid by-products
Compound: O=C(O)c1ccc(C(=O)O)o1 [FDCA, 2,5-furandicarboxylic acid]
appearance of solution on heating (decomposition) ([2]; after 15 minutes): some black solid by-products started to form
